Test results: US10538532B2, “Hepatitis B antiviral agents” (ENANTA PHARMACEUTICALS, INC., priority 2016, dated 2020)
Like-named read-outs stand apart in the source and are kept apart here.

Test system: HBV
Test: HepAD38 antiviral assay: reduction of viral product accumulation (virion DNA by qPCR, HBsAg or HBeAg by ELISA)
Format: cell-based, hepatitis B virus
Details: read-out: HepAD38 EC50
In short: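 HepAD38 cells were washed free of tetracycline, plated at 35,000 cells/well and given compounds diluted 1:200 from DMSO. After 5 days, or 8 days with media and compound refreshed on d2 and d5, virion DNA was measured by qPCR and HBsAg or HBeAg by ELISA. EC50 is the concentration giving 50% reduction of viral product versus no-drug controls.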

[1] = Hepatitis B virus, HePAD38, 120 h, HepAD38 cells, five days after compound addition, concentration reducing viral product accumulation by 50% relative to no drug controls
[2] = HepAD38 cells, five days after compound addition, concentration reducing viral product accumulation by 50% relative to no drug controls

Row | Compound | EC50 [1] [nM] | further results
1 | O=C(Nc1cc(F)c(F)c(F)c1)c1ccc(Cl)c(S(=O)(=O)C[C@@H]2CC3CC2[C@H](O)[C@@H]3O)c1 (stereo partly shown) [Example 242] | 100 to 400 | –
2 | O=C(Nc1cc(F)c(F)c(F)c1)c1ccc(Cl)c(S(=O)(=O)CC2CC3CCC2C(O)C3O)c1 (stereo not shown) [Example 243] | < 100 | –
3 | O=C(Nc1cc(F)c(F)c(F)c1)c1ccc(Cl)c(S(=O)(=O)[C@H]2C3CC[C@H]2C[C@](O)(/C=N/OCc2ccccc2F)C3)c1 [Example 244] | < 100 | –
4 | O=C(Nc1cc(F)c(F)c(F)c1)c1ccc(Cl)c(S(=O)(=O)C2CC3CCC(C2)C3=O)c1 (stereo not shown) [Example 245] | – | EC50 [2]: 100 to 400 nM
5 | C[C@@]1(O)CC2CC[C@@H](C1)[C@H]2S(=O)(=O)c1cc(C(=O)Nc2cc(F)c(F)c(F)c2)ccc1Cl [Example 247] | < 100 | –
6 | C[C@H](N)C(=O)OC[C@]1(O)CC2CC[C@@H](C1)[C@H]2S(=O)(=O)c1cc(C(=O)Nc2cc(F)c(F)c(F)c2)ccc1Cl [Example 248] | < 100 | –
7 | O=C(Nc1cc(F)c(F)c(F)c1)c1ccc(Cl)c(S(=O)(=O)[C@H]2CC3CCC(C2)[C@H]3CO)c1 [Example 249] | 100 to 400 | –
8 | O=C(Nc1cc(F)c(F)c(F)c1)c1ccc(Cl)c(S(=O)(=O)[C@H]2CC3CCC(C2)[C@@H]3CO)c1 [Example 250] | > 400 | –
9 | C[C@]1(O)C2CCC1C[C@H](S(=O)(=O)c1cc(C(=O)Nc3cc(F)c(F)c(F)c3)ccc1Cl)C2 [Example 251] | – | EC50 [2]: > 400 nM
10 | CC(C)[C@H](N)C(=O)OC[C@]1(O)CC2CC[C@@H](C1)[C@H]2S(=O)(=O)c1cc(C(=O)Nc2cc(F)c(F)c(F)c2)ccc1Cl [Example 254] | < 100 | –
11 | CC(C)(C)OC(=O)N1C2CCC1CC(S(=O)(=O)c1cc(C(=O)Nc3cc(F)c(F)c(F)c3)ccc1Cl)C2 (stereo not shown) [Example 255] | > 400 | –
12 | O=C(Nc1cc(F)c(F)c(F)c1)c1ccc(Cl)c(S(=O)(=O)[C@H]2CC3CCC(C2)[C@@]3(O)Cn2cccn2)c1 [Example 261] | > 400 | –
13 | NC(=O)OCC1=C[C@@H]2CCC(C1)C2S(=O)(=O)c1cc(C(=O)Nc2cc(F)c(F)c(F)c2)ccc1Cl (stereo partly shown) [Example 262] | < 100 | –
14 | O=C(Nc1cc(F)c(F)c(F)c1)c1ccc(Cl)c(S(=O)(=O)[C@H]2C3CC[C@H]2C[C@]2(COS(=O)O2)C3)c1 (stereo partly shown) [Example 263] | < 100 | –
15 | O=C(Nc1cc(F)c(F)c(F)c1)c1ccc(Cl)c(S(=O)(=O)[C@H]2CC3CCC(C2)[C@]3(O)CNC(=O)[C@@H]2CCCN2)c1 [Example 264] | < 100 | –
16 | CC(C)[C@H](NC(=O)OC(C)(C)C)C(=O)OC[C@]1(O)CC2CC[C@@H](C1)[C@H]2S(=O)(=O)c1cc(C(=O)Nc2cc(F)c(F)c(F)c2)ccc1Cl [Example 265] | 100 to 400 | –
17 | O=C(Nc1cc(F)c(F)c(F)c1)c1ccc(Cl)c(S(=O)(=O)C2CC3CCC(C2)N3)c1 (stereo not shown) [Example 266] | – | EC50 (Hepatitis B virus, HePAD38, 120 h): 100 to 400 nM
18 | CC[C@]1(O)CC2CC[C@@H](C1)[C@H]2S(=O)(=O)c1cc(C(=O)Nc2cc(F)c(F)c(F)c2)ccc1Cl [Example 268] | 100 to 400 | –
19 | O=C(Nc1cc(F)c(F)c(F)c1)c1ccc(Cl)c(S(=O)(=O)[C@H]2C3CC[C@H]2C[C@@]2(CO2)C3)c1 [Example 269] | < 100 | –
20 | C=CCOC[C@]1(O)CC2CC[C@@H](C1)[C@H]2S(=O)(=O)c1cc(C(=O)Nc2cc(F)c(F)c(F)c2)ccc1Cl [Example 270] | < 100 | –

Row | Compound | EC50 [1] [nM] | further results
21 | O=C(Nc1cc(F)c(F)c(F)c1)c1ccc(Cl)c(S(=O)(=O)[C@H]2C3CC[C@H]2C[C@H](Cn2cccn2)C3)c1 [Example 311] | < 100 | –
22 | O=C(Nc1cc(F)c(F)c(F)c1)c1ccc(Cl)c(S(=O)(=O)[C@H]2C3CC[C@H]2C[C@](O)(Cn2ccnc2)C3)c1 [Example 314] | < 100 | –
23 | COc1ccc(COC[C@]2(O)CC3CC[C@@H](C2)[C@H]3S(=O)(=O)c2cc(C(=O)Nc3cc(F)c(F)c(F)c3)ccc2Cl)cc1 [Example 315] | < 100 | –
24 | O=C(Nc1cc(F)c(F)c(F)c1)c1ccc(Cl)c(S(=O)(=O)[C@H]2C3CC[C@H]2C[C@](O)(COCc2ccncc2)C3)c1 [Example 316] | 100 to 400 | –
25 | CNC(=O)OC[C@@H]1CC2CC[C@@H](C1)[C@H]2S(=O)(=O)c1cc(C(=O)Nc2cc(F)c(F)c(F)c2)ccc1Cl [Example 318] | < 100 | –
26 | O=C(Nc1cc(F)c(F)c(F)c1)c1ccc(Cl)c(S(=O)(=O)[C@H]2C3CC[C@H]2C[C@](O)(COC/C=N/O)C3)c1 [Example 320] | < 100 | –
27 | O=C(Nc1cc(F)c(F)c(F)c1)c1ccc(Cl)c(S(=O)(=O)[C@H]2CC3CCC(C2)[C@]3(O)c2ccc(F)cn2)c1 [Example 323] | < 100 | –
28 | O=C(Nc1cc(F)c(F)c(F)c1)c1ccc(Cl)c(S(=O)(=O)[C@H]2C3CC[C@H]2C[C@](O)(COCCN2CCOCC2)C3)c1 [Example 325] | < 100 | –
29 | O=C(Nc1cc(F)c(F)c(F)c1)c1ccc(Cl)c(S(=O)(=O)[C@H]2C3CC[C@H]2C[C@](O)(COC/C=C/c2ccncc2)C3)c1 [Example 326] | > 400 | –
30 | O=C(Nc1cc(F)c(F)c(F)c1)c1ccc(Cl)c(S(=O)(=O)[C@H]2C3CC[C@H]2C[C@](O)(COCC(O)CO)C3)c1 (stereo partly shown) [Example 327] | 100 to 400 | –
31 | O=C(Nc1cc(F)c(F)c(F)c1)c1ccc(Cl)c(S(=O)(=O)[C@H]2C3CC[C@H]2C[C@](O)(COCC2CO2)C3)c1 (stereo partly shown) [Example 328] | < 100 | –
32 | O=C(Nc1cc(F)c(F)c(-n2cccn2)c1)c1ccc(Cl)c(S(=O)(=O)[C@H]2C3CC[C@H]2C[C@](O)(Cn2cccn2)C3)c1 [Example 333] | > 400 | –
33 | COC(=O)NC[C@@H]1CC2CC[C@@H](C1)[C@H]2S(=O)(=O)c1cc(C(=O)Nc2cc(F)c(F)c(F)c2)ccc1Cl [Example 334] | < 100 | –
34 | COC(=O)N(C)C[C@@H]1CC2CC[C@@H](C1)[C@H]2S(=O)(=O)c1cc(C(=O)Nc2cc(F)c(F)c(F)c2)ccc1Cl [Example 335] | < 100 | –
35 | O=C(Nc1cc(F)c(F)c(F)c1)c1ccc(Cl)c(S(=O)(=O)[C@H]2CC3CCC(C2)[C@]3(O)CN2CCOCC2)c1 [Example 336] | < 100 | –
36 | O=C(Nc1cc(F)c(F)c(F)c1)c1ccc(Cl)c(S(=O)(=O)[C@H]2C3CCC2C[C@H](CN2CCOCC2)C3)c1 [Example 337] | 100 to 400 | –
37 | O=C(Nc1cc(F)c(F)c(F)c1)c1ccc(Cl)c(S(=O)(=O)[C@H]2C3CC[C@H]2C[C@]2(C3)OC(=O)[C@@H](O)[C@@H]2O)c1 [Example 338] | > 400 | –
38 | COC(=O)[C@@H](NC[C@]1(O)C2CCC1C[C@@H](S(=O)(=O)c1cc(C(=O)Nc3cc(F)c(F)c(F)c3)ccc1Cl)C2)C(C)C [Example 339] | > 400 | –
39 | CCOC(=O)[C@@H](NC[C@]1(O)C2CCC1C[C@@H](S(=O)(=O)c1cc(C(=O)Nc3cc(F)c(F)c(F)c3)ccc1Cl)C2)C(C)C [Example 340] | > 400 | –
40 | CC(CO)NC[C@]1(O)C2CCC1C[C@@H](S(=O)(=O)c1cc(C(=O)Nc3cc(F)c(F)c(F)c3)ccc1Cl)C2 (stereo partly shown) [Example 341] | 100 to 400 | –

Row | Compound | EC50 [1] [nM] | further results
41 | CC(O)CNC[C@]1(O)C2CCC1C[C@@H](S(=O)(=O)c1cc(C(=O)Nc3cc(F)c(F)c(F)c3)ccc1Cl)C2 (stereo partly shown) [Example 342] | < 100 | –
42 | O=C(Nc1cc(F)c(F)c(F)c1)c1ccc(Cl)c(S(=O)(=O)[C@H]2CC3CCC(C2)[C@]3(O)C[N+]2([O-])C[C@@H](O)[C@H](O)C2)c1 [Example 343] | 100 to 400 | –
43 | CC(C)[C@H](NC[C@]1(O)C2CCC1C[C@@H](S(=O)(=O)c1cc(C(=O)Nc3cc(F)c(F)c(F)c3)ccc1Cl)C2)C(=O)O [Example 344] | > 400 | –
44 | CC(=O)NC[C@]1(O)C2CCC1C[C@@H](S(=O)(=O)c1cc(C(=O)Nc3cc(F)c(F)c(F)c3)ccc1Cl)C2 [Example 345] | < 100 | –
45 | CC(=O)N1C[C@]2(OC1(C)C)C1CCC2C[C@@H](S(=O)(=O)c2cc(C(=O)Nc3cc(F)c(F)c(F)c3)ccc2Cl)C1 [Example 346] | < 100 | –
46 | NC[C@]1(O)C2CCC1C[C@@H](S(=O)(=O)c1cc(C(=O)Nc3cc(F)c(F)c(F)c3)ccc1Cl)C2 [Example 347] | 100 to 400 | –
47 | CC(C)(C)OC(=O)NCC(=O)NC[C@]1(O)C2CCC1C[C@@H](S(=O)(=O)c1cc(C(=O)Nc3cc(F)c(F)c(F)c3)ccc1Cl)C2 [Example 348] | < 100 | –
48 | C[C@H](NC(=O)OC(C)(C)C)C(=O)NC[C@]1(O)C2CCC1C[C@@H](S(=O)(=O)c1cc(C(=O)Nc3cc(F)c(F)c(F)c3)ccc1Cl)C2 [Example 349] | < 100 | –
49 | NCC(=O)NC[C@]1(O)C2CCC1C[C@@H](S(=O)(=O)c1cc(C(=O)Nc3cc(F)c(F)c(F)c3)ccc1Cl)C2 [Example 350] | 100 to 400 | –
50 | C[C@H](N)C(=O)NC[C@]1(O)C2CCC1C[C@@H](S(=O)(=O)c1cc(C(=O)Nc3cc(F)c(F)c(F)c3)ccc1Cl)C2 [Example 351] | 100 to 400 | –
51 | O=C(Nc1cc(F)c(F)c(F)c1)c1ccc(Cl)c(S(=O)(=O)[C@H]2CC3CCC(C2)[C@]3(O)C(O)CO)c1 (stereo partly shown) [Example 352] | < 100 | –
52 | NC(=O)O[C@]1(c2cccnc2)C2CCC1C[C@H](S(=O)(=O)c1cc(C(=O)Nc3cc(F)c(F)c(F)c3)ccc1Cl)C2 [Example 353] | < 100 | –
53 | O=C(Nc1ccc(F)c(F)c1)c1ccc(Cl)c(S(=O)(=O)[C@H]2CC3CCC(C2)[C@H]3O)c1 [Example 354] | 100 to 400 | –
54 | O=C(Nc1cc(F)c(F)c(F)c1)c1ccc(Cl)c(S(=O)(=O)C2C[C@@H]3O[C@H](C2)[C@@H](O)[C@H]3O)c1 (stereo partly shown) [Example 355] | > 400 | –
55 | O=C(Nc1cc(F)c(F)c(F)c1)c1ccc(Cl)c(S(=O)(=O)C2C[C@H]3CC[C@@H](C2)O3)c1 (stereo partly shown) [Example 356] | 100 to 400 | –
56 | O=C(Nc1cc(F)c(F)c(F)c1)c1ccc(Cl)c(S(=O)(=O)[C@H]2C[C@H]3CC[C@@H](C2)O3)c1 [Example 357] | 100 to 400 | –
57 | CC(CO)NCCOC[C@]1(O)CC2CC[C@@H](C1)[C@H]2S(=O)(=O)c1cc(C(=O)Nc2cc(F)c(F)c(F)c2)ccc1Cl (stereo partly shown) [Example 358] | 100 to 400 | –
58 | O=C(Nc1cc(F)c(F)c(F)c1)c1ccc(Cl)c(S(=O)(=O)[C@H]2CC3CCC(C2)[C@@H]3N2CCOCC2)c1 [Example 359] | < 100 | –
